Data published in ChEMBL document CHEMBL1201862, “PubChem BioAssay data set” (2004).
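How tested: cells in 96-well plates exposed to compound for 48 hours at five concentrations. GI50: concentration for 50% inhibition of growth.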 Activity calls are given as the source filed them. Rule as the data show it: active = GI50 up to about 1.1 µM and inactive = higher.

How the values were obtained:
Test in all cases: growth of human tumour cells (NCI), 48 h
RXF 631 = test system: RXF 631
HOP-18 = test system: HOP-18
XF498 = test system: XF498
M19-MEL = test system: M19-MEL
SNB-78 = test system: SNB-78
DMS-273 = test system: DMS-273
LXFL 529 = test system: LXFL 529
MDA-N = test system: MDA-N

Measured: GI50

O=C1c2ccccc2C(=O)c2c(O)c(NCCCNCCO)cc(O)c21
inactive: RXF 631 6.34 µM | HOP-18 2.41 µM | XF498 16 µM | M19-MEL 13.7 µM | SNB-78 11.2 µM | DMS-273 4.97 µM | LXFL 529 11.1 µM

COc1ccc(C(=O)Nc2ccccc2)cc1[N+](=O)[O-]
inactive: RXF 631 > 100 µM | XF498 > 100 µM | M19-MEL > 100 µM | SNB-78 > 100 µM | DMS-273 > 100 µM | LXFL 529 > 100 µM

CCOC(=O)c1c(CN2CCNCC2)nc2ccc(Cl)cc2c1-c1ccccc1
inactive: RXF 631 2.56 µM | HOP-18 1.79 µM | XF498 3.15 µM | MDA-N 5.78 µM | M19-MEL 1.9 µM | SNB-78 8.18 µM | DMS-273 2.32 µM | LXFL 529 1.74 µM

O=C(c1cccc2ccccc12)N1CCC(C2CCN(C(=O)c3cccc4ccccc34)CC2)CC1
inactive: RXF 631 > 100 µM | HOP-18 > 100 µM | XF498 89.3 µM | M19-MEL > 100 µM | SNB-78 70.1 µM | DMS-273 > 100 µM | LXFL 529 > 100 µM

CC(NS(=O)(=O)c1ccc([N+](=O)[O-])cc1)C(=O)O (stereo not given)
inactive: RXF 631 > 100 µM | HOP-18 > 100 µM | XF498 > 100 µM | DMS-273 > 100 µM | LXFL 529 > 100 µM

CC(=O)N1CCN(C=S)CC1
inactive: RXF 631 > 100 µM | XF498 > 100 µM | M19-MEL > 100 µM | SNB-78 > 100 µM | DMS-273 > 100 µM | LXFL 529 > 100 µM

N#CSCc1nc2ccc(Cl)cc2c(-c2ccccc2)[n+]1[O-]
inactive: RXF 631 37.9 µM | HOP-18 19.5 µM | XF498 17.4 µM | M19-MEL 31.8 µM | SNB-78 36.9 µM | LXFL 529 13.9 µM

COc1ccc(/C=C/c2cc(OC)c(OC)c(OC)c2)cc1OC
inactive: RXF 631 > 100 µM | HOP-18 > 100 µM | XF498 77.8 µM | SNB-78 36.1 µM | DMS-273 > 82.2 µM | LXFL 529 78.9 µM

CCCCCC(=O)C(C)C1=Nc2nnc(CCCCCCCc3nnc4n3C(=O)C(C(C)C(=O)CCCCC)=N4)n2C1=O (stereo not given)
inactive: RXF 631 > 100 µM | HOP-18 > 100 µM | XF498 > 100 µM | M19-MEL > 100 µM | LXFL 529 > 100 µM

Cc1c2c(cc[n+]1C)O[B-](c1ccccc1)(c1ccccc1)O2
inactive: RXF 631 67.6 µM | HOP-18 58.6 µM | XF498 35 µM | M19-MEL 49.1 µM | SNB-78 88.3 µM | DMS-273 36.5 µM | LXFL 529 42.9 µM

CC1(C)C(=NNC(=O)C[N+](C)(C)C)C(C)(C)C1=NNC(=O)C[N+](C)(C)C
inactive: RXF 631 > 100 µM | HOP-18 > 100 µM | XF498 > 100 µM | M19-MEL > 100 µM | SNB-78 > 100 µM | DMS-273 42.2 µM | LXFL 529 > 100 µM
